For 31 compounds, melting point and IC50 results are on record in US9000010B2, “Alkyl-heterocycle carbamate derivatives, their preparation and their therapeutic application” (Sanofi, priority 2010, dated 2015).

Molecules are shown by their SMILES. Counter-ions that a name gives are not always drawn.

The target of data set [1] is T1, FAAH (Fatty Acid Amide Hydrolase) (Mus musculus, UniProt O08914).
T1 construct: The membrane homogenates are prepared at the time of use by homogenization of the tissues; from tissue; host or cells: mouse brain (minus the cerebellum), membrane homogenate
T1 sequence (O08914 1-579): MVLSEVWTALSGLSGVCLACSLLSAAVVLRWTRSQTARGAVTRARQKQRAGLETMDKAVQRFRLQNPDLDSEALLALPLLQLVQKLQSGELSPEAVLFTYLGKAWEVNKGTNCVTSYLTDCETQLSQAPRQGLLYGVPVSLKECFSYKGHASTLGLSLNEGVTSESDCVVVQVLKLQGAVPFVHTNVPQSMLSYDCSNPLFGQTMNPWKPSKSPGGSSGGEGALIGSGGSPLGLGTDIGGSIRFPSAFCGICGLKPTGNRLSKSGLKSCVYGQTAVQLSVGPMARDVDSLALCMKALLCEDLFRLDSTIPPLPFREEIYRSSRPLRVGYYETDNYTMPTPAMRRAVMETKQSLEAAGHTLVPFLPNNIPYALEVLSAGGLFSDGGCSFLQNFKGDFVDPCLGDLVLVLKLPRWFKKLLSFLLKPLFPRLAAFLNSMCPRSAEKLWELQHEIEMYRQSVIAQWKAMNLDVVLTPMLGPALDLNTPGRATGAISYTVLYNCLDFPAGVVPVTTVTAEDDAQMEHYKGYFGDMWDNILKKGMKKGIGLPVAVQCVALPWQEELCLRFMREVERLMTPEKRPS
The data set is described as follows: Radioenzymatic test of FAAH inhibition: hydrolysis of anandamide [ethanolamine 1-3H] by mouse brain membrane homogenates. In kind it is biochemical. The note with it: mouse brain membrane homogenate; preincubation 20 min at 25° C.; anandamide 10 μM; read-out: CI50 (concentration which inhibits the control enzymatic activity of FAAH by 50%). Here is the method: The compounds of the invention form the subject of pharmacological trials which make it possible to determine their inhibitory effect on the enzyme FAAH (Fatty Acid Amide Hydrolase).
Thus, mouse brains (minus the cerebellum) are removed and stored at −80° C. The membrane homogenates are prepared at the time of use by homogenization of the tissues using a Precellys® device in the reaction buffer (Tris-HCl 10 mM pH=8, NaCl 150 mM and ethylenediaminetetraacetic acid (EDTA) 1 mM). The enzymatic reaction is carried out in 96-well MultiScreen filtration plates in a final volume of 70 μl. Reaction buffer supplemented with bovine serum albumin free from fatty acids (BSA, 1 mg/ml) is used for the enzymatic reaction, the dilution of the compounds and the dilution of the anandamide [ethanolamine 1-^3H]. Reaction buffer comprising the BSA (43 μl/well), the diluted test compounds at different concentrations (7 μl/well comprising 1% of DMSO) and the membrane preparation (10 μl/well, i.e. 200 μg of tissue per trial) are successively added to the wells. After preincubating the compounds with the enzyme at 25° C. for 20 minutes, the reaction is initiated by the addition of anandamide [ethanolamine 1-^3H] (specific activity of 15-20 Ci/mmol) diluted with cold anandamide (10 μl/well, final concentration of 10 μM, 0.01 μCi, per trial). After incubating at 25° C. for 20 minutes, the enzymatic reaction is halted by addition of a […] active charcoal solution prepared in a 1.5M NaCl and 0.5M HCl buffer (50 μl/well). The mixture is stirred for 10 minutes and then the aqueous phase comprising the [1-^3H]ethanolamine is recovered by filtration under vacuum and counted by liquid scintillation.

The term melting point denotes the temperature, or range, at which the solid turns liquid. `O=C(OCc1cscn1)N1CCC(CCOc2ccc3ncccc3c2)CC1` (as salt: HCl) [No. 19, Thiazol-4-ylmethyl 4-[2-(quinolin-6-yloxy)ethyl]-piperidine-1-carboxylate] had a melting point of 140 to 150 °C. Same read-out and setting: as for `O=C(OCc1cscn1)N1CCC(CCOc2ccc3cnccc3c2)CC1` (as salt: HCl) [No. 20, Thiazol-4-ylmethyl 4-[2-(isoquinolin-6-yloxy)ethyl]-piperidine-1-carboxylate], the figure is 150 to 160 °C; as for `COc1ccc2cc(OCC3CCN(C(=O)OCc4cscn4)C3)ccc2c1` (racemic) [No. 11, Thiazol-4-ylmethyl (+/−)-3-(6-methoxynaphth-2-yloxymethyl)pyrrolidine-1-carboxylate], 128 to 130 °C. The same measure, in the same setting: in the case of `O=C(OCc1cscn1)N1CCC(COc2ccc(Cl)c(Cl)c2)C1` (racemic) [No. 13, Thiazol-4-ylmethyl (+/−)-3-(3,4-dichlorophenoxymethyl)pyrrolidine-1-carboxylate] it was 78 to 80 °C; in that of `O=C(OCc1cscn1)N1CCC(COc2ccc(Cl)c3ccccc23)C1` (racemic) [No. 16, Thiazol-4-ylmethyl (+/−)-3-(4-chloronaphth-1-yloxymethyl)pyrrolidine-1-carboxylate], 84 to 86 °C. The same measure, in the same setting: as for `O=C(OCc1cscn1)N1CCC(COc2ccc3ccccc3c2)C1` (racemic) [No. 17, Thiazol-4-ylmethyl 3-(naphth-2-yloxymethyl)pyrrolidine-1-carboxylate], the figure is 90 to 92 °C; as for `O=C(OCc1cscn1)N1CCC(COc2ccc(-c3ccc(F)cc3)cc2)C1` (racemic) [No. 22, Thiazol-4-ylmethyl 3-(4′-fluorobiphenyl-4-yloxymethyl)-pyrrolidine-1-carboxylate], 115 to 117 °C; as for `O=C(OCc1cscn1)N1CCC(COc2ccc3c(Cl)cccc3c2)C1` (racemic) [No. 23, Thiazol-4-ylmethyl (+/−)-3-(5-chloronaphth-2-yloxymethyl)pyrrolidine-1-carboxylate], 89 to 91 °C.

Consider `O=C(OCc1cscn1)N1CCC(COc2cccc(OC(F)(F)F)c2)C1` (racemic) [No. 24, Thiazol-4-ylmethyl (+/−)-3-(3-{trifluoromethoxy}-phenoxymethyl)pyrrolidine-1-carboxylate], for which the melting point fell in the range of 54 to 56 °C. Same read-out and setting: as for `CC(C)(c1ccccc1)c1ccc(OCC2CCN(C(=O)OCc3cscn3)C2)cc1` (racemic) [No. 25, Thiazol-4-ylmethyl (+/−)-3-[4-(1-methyl-1-phenyl-ethyl)phenoxymethyl]pyrrolidine-1-carboxylate], the figure is 76 to 78 °C; as for `O=C(OCc1cscn1)N1CCC(COc2ccc3cnccc3c2)C1` (racemic) [No. 27, Thiazol-4-ylmethyl (+/−)-3-(isoquinolin-6-yloxymethyl)pyrrolidine-1-carboxylate], 122 to 124 °C. In turn, `O=C(OCc1cscn1)N1CCC(COc2ccc3cccnc3c2)C1` (racemic) [No. 28, Thiazol-4-ylmethyl (+/−)-3-(quinolin-7-yloxymethyl)-pyrrolidine-1-carboxylate] gave a melting point of 94 to 96 °C. `O=C(OCc1cscn1)N1CCC(COc2ccc3ccncc3c2)C1` (racemic) [No. 29, Thiazol-4-ylmethyl (+/−)-3-(isoquinolin-7-yloxymethyl)pyrrolidine-1-carboxylate] had a melting point of 121 to 123 °C. `O=C(OCc1cscn1)N1CCC(COc2ccc(Cl)c(C(F)(F)F)c2)C1` (racemic) [No. 30, Thiazol-4-ylmethyl (+/−)-3-(4-chloro-3-{trifluoromethyl}phenoxymethyl)pyrrolidine-1-carboxylate]: the melting point was in the range of 60 to 62 °C. Take `O=C(OCc1cscn1)N1CCC(COc2ccc3c(F)cccc3c2)C1` (racemic) [No. 31, Thiazol-4-ylmethyl (+/−)-3-(5-fluoronaphth-2-yloxymethyl)pyrrolidine-1-carboxylate]: the melting point was in the range of 76 to 78 °C. Compound `O=C(OCc1nccs1)N1CCC(COc2ccc(-c3ccc(F)cc3)cc2)C1` (racemic) [No. 197, Thiazol-2-ylmethyl (+/−)-3-(4′-fluorobiphenyl-4-yloxymethyl)pyrrolidine-1-carboxylate] gave a melting point of 81 to 83 °C. The same measure, in the same setting: as for `COc1ccc2cc(OCC3CCN(C(=O)OCc4cc(C(N)=O)no4)C3)ccc2c1` (racemic) [No. 201, 3-Carbamoylisoxazol-5-ylmethyl (+/−)-3-(6-methoxynaphth-2-yloxymethyl)pyrrolidine-1-carboxylate], the figure is 193 to 195 °C; as for `O=C(OCc1nccs1)N1CC[C@@H](COc2ccc3ccccc3c2)C1` (single isomer, unassigned) [No. 194], 100 to 112 °C; as for `O=C(OCc1nccs1)N1CC[C@H](COc2ccc3ccccc3c2)C1` (single isomer, unassigned) [No. 195], 112 to 114 °C. `O=C(OCc1cscn1)N1CCC(CCOc2ccc(Cl)cc2)CC1` [No. 5, Thiazol-4-ylmethyl 4-[2-(4-chlorophenoxy)ethyl]-piperidine-1-carboxylate] displayed a melting point of 53 to 55 °C.

`O=C(OCc1cncs1)N1CCC(CCOc2ccc(F)cc2)CC1` [No. 6, Thiazol-5-ylmethyl 4-[2-(4-fluorophenoxy)ethyl]-piperidine-1-carboxylate]: the melting point was 96 to 98 °C. The same measure, in the same setting: in the case of `O=C(OCc1cncs1)N1CCC(CCOc2ccc(Cl)cc2)CC1` [No. 7, Thiazol-5-ylmethyl 4-[2-(4-chlorophenoxy)ethyl]-piperidine-1-carboxylate] it was 93 to 97 °C.

In turn, `O=C(OCc1cncs1)N1CCC(CCOc2ccc(C(F)(F)F)cc2)CC1` [No. 8, Thiazol-5-ylmethyl 4-[2-(4-{trifluoromethyl}phenoxy)-ethyl]piperidine-1-carboxylate] displayed a melting point of 47 to 49 °C. Still for that read-out and setting: as for `COc1ccc2ccc(OCCC3CCN(C(=O)OCc4cscn4)CC3)cc2c1` [No. 9, Thiazol-4-ylmethyl 4-[2-(7-methoxynaphth-2-yloxy)ethyl]-piperidine-1-carboxylate], the figure is 95 to 97 °C; as for `N#Cc1ccc(OCCC2CCN(C(=O)OCc3cscn3)CC2)cc1` [No. 10, Thiazol-4-ylmethyl 4-[2-(4-cyanophenoxy)ethyl]-piperidine-1-carboxylate], 108 to 110 °C; as for `COc1ccc2cc(OCCC3CCN(C(=O)OCc4cscn4)CC3)ccc2c1` [No. 14, Thiazol-4-ylmethyl 4-[2-(6-methoxynaphth-2-yloxy)-ethyl]piperidine-1-carboxylate], 100 to 102 °C. In the case of `O=C(OCc1cscn1)N1CCC(CCOc2ccc3ccccc3c2)CC1` [No. 15, Thiazol-4-ylmethyl 4-[2-(naphth-2-yloxy)ethyl]-piperidine-1-carboxylate], the melting point lay in the range of 88 to 90 °C. The compound `O=C(OCc1cscn1)N1CCC(CCOc2ccc(-c3ccc(F)cc3)cc2)CC1` [No. 18, Thiazol-4-ylmethyl 4-[2-(4′-fluorobiphenyl-4-yloxy)-ethyl]piperidine-1-carboxylate] registered a melting point of 62 to 64 °C. Regarding `O=C(OCc1nccs1)N1CCC(CCOc2ccc(C3CCCC3)cc2)CC1` [No. 38, Thiazol-2-ylmethyl 4-[2-(4-cyclopentylphenoxy)-ethyl]piperidine-1-carboxylate], the IC50 in data set [1] turned out to be 14 nM. For the compound `O=C(OCc1nccs1)N1CCC(CCOc2ccccc2-c2nc3ccccc3o2)CC1` [No. 39, Thiazol-2-ylmethyl 4-[2-(2-{benzoxazol-2-yl}-phenoxy)ethyl]piperidine-1-carboxylate], the IC50 in data set [1] worked out at 13 nM.

As to `NC(=O)c1cc(COC(=O)N2CCC(CCOc3ccc(F)cc3)CC2)on1` [No. 198, 3-Carbamoylisoxazol-5-ylmethyl 4-[2-(4-fluorophenoxy)ethyl]piperidine-1-carboxylate], the melting point fell in the range of 106 to 108 °C.
